Laboratory results: patent US8206751B2, “Class of therapeutics that enhance small molecule diffusion” (Diffusion Pharmaceuticals LLC, priority 2007, dated 2012)

What was measured:
[1] = TSC concentrations from 1 μmole/liter to around 200 μmole/liter; cited from earlier work
[2] = rats breathing 100% oxygen; cited from earlier work
[3] = Oxygen transport across the skin, transcutaneous oxygen monitor (TCOM); assay type: in vivo; settings: normal rat switched to 100% oxygen at time zero, intravenous injection in the femoral vein, versus saline control
Experimental: Diffusion enhancing compounds such as kosmotropes increase the oxygen transport in vivo. In the subject experiment, the oxygen diffusing through the skin of a normal, non-diseased rat was measured using a transcutaneous oxygen monitor (TCOM). In the subject study, the rats breathed air and then were switched to breathing 100% oxygen at a time equal to zero. Also at time zero, the rats were injected (intravenously in the femoral vein) with either saline (control), trehalose, glycine betaine, or TSC.

[4] = Glucose diffusion through aqueous kosmotrope solutions, microinterferometric method; assay type: physicochemical; settings: about 10 μM kosmotrope in water, 25° C., glucose 0.9 molar
Experimental: The diffusion of glucose through aqueous solutions of the above-mentioned kosmotropes was measured using a microinterferometric method, Secor, R. M., AIChE Journal, 11: 452-456, 1965.
In this method, a wedge is formed by two microscope slides that have a partial coating of a metal such as aluminum on the inner sides of the wedge. The wedge is placed on a microscope stage and illuminated from below using some source of monochromatic light, such as a helium-neon laser. As the light passes through the wedge, the partial coating of aluminum allows some light to be transmitted, while some is reflected. This creates constructive and destructive lines known as interference fringes. The interference fringes can then be magnified by a microscope and recorded with a camera.
Molecules of glucose will diffuse along a concentration gradient of glucose. Since the refractive index of the solution is related to the concentration of the glucose, the fringes at a given point will change with time. […]
Solutions of three kosmotropes (proline, betaine and trehalose) in water were made, so that the solutions contained about 10 μM of each of the kosmotropes. Using the trehalose solution as an example, the diffusivity of glucose through each of these solutions was then measured in the following way.
The trehalose solution was divided into two parts. […] A camera recorded the resulting fringe pattern. […]

| SMILES | increase in the diffusivity of glucose through water [1] | brain oxygen level [2] | oxygen transport across the skin (TCOM readings) [3] | diffusivity of glucose through the solution compared with plain water [4] |
| --- | --- | --- | --- | --- |
| CC(/C=C/C=C(\C)C(=O)[O-])=C\C=C\C=C(C)\C=C\C=C(/C)C(=O)[O-].[Na+].[Na+] [TSC, trans sodium crocetinate] | around 30% | further increased the brain oxygen level | increased oxygen transport across the skin | – |
| C[N+](C)(C)CC(=O)O [glycine betaine, Glycine betaine] | – | – | increased oxygen transport across the skin | – |
| OC[C@H]1O[C@H](O[C@H]2O[C@H](CO)[C@@H](O)[C@H](O)[C@H]2O)[C@H](O)[C@@H](O)[C@@H]1O [trehalose, Trehalose] | – | – | increased oxygen transport across the skin | greater than the value of glucose through plain water |
